# Experimental data from patent US10483329B2, “Hole transporting material, hole transporting layer, OLED display panel electronic device comprising the same” (SHANGHAI TIANMA AM-OLED CO., LTD., priority 2016, dated 2019).
# Assay: Solubility in NMP
# Type: physicochemical
# Conditions: organic solvent or mixture; solvent NMP (N-methylpyrrolidone)
row,SMILES,solubility [mg/mL]
1,Cc1cc(-c2ccc(N(c3ccc(-c4ccccc4)cc3)c3ccc4c(c3)C(C)(C)c3ccccc3-4)cc2)cc(C)c1N(c1ccc(-c2ccccc2)cc1)c1ccc2c(c1)C(C)(C)c1ccccc1-2 [Example 1],22
2,Cc1cccc(C)c1-c1ccc(N(c2ccc3c(c2)C(C)(C)c2ccccc2-3)c2ccc3c(c2)C(C)(C)c2cc(N(c4ccc(-c5c(C)cccc5C)cc4)c4ccc5c(c4)C(C)(C)c4ccccc4-5)ccc2-3)cc1 [Example 3],30
3,Cc1cc(N(c2ccc3c(c2)C(C)(C)c2ccccc2-3)c2ccc3c(c2)C(C)(C)c2ccccc2-3)ccc1-c1ccc(N(c2ccc3c(c2)C(C)(C)c2ccccc2-3)c2ccc3c(c2)C(C)(C)c2ccccc2-3)cc1 [Example 4],35

# Next, values leading:
row,solubility [mg/mL],SMILES
1,5.2,"CC1(C)c2cc(N(c3ccc(-c4ccccc4)cc3)c3ccc(-c4ccccc4)cc3)ccc2-c2ccc(N(c3ccc(-c4ccccc4)cc3)c3ccc(-c4ccccc4)cc3)cc21 [Comparison Example 2, reference compound]"
2,2.9,"Cc1cccc(C)c1-c1ccc(N(c2ccc(-c3ccccc3)cc2)c2ccc(-c3ccc(N(c4ccc(-c5ccccc5)cc4)c4ccc(-c5c(C)cccc5C)cc4)cc3)cc2)cc1 [Comparison Example 3, reference compound]"
3,2.2,"c1ccc(-c2ccc(N(c3ccc(-c4ccccc4)cc3)c3ccc(N(c4ccc(-c5ccccc5)cc4)c4ccc(-c5ccccc5)cc4)cc3)cc2)cc1 [Comparison Example 4, reference compound]"
4,28,Cc1cccc(-c2ccc(N(c3ccc(-c4cccc(C)c4)cc3)c3ccc4c(c3)C(C)(C)c3cc(N(c5ccc(-c6cccc(C)c6)cc5)c5ccc(-c6cccc(C)c6)cc5)ccc3-4)cc2)c1 [Example 2]
